Measured values: patent US9120779B2, “Inhibitors of HCV NS5A” (PRESIDIO PHARMACEUTICALS, INC., priority 2008, dated 2015)

System: HCV genotype 1b replicon in Huh 7 cells
Assay: HCV replicon assay (luciferase readout, 1b_Huh-Luc/Neo-ET cell line)
Assay type: cell-based
Settings: Hepatitis C virus, Huh-7, 72 h, read-out: Inhibition of HCV genotype 1b, Table 1, 72 h incubation
Description: Biological activity of the compounds of the invention was determined using an HCV replicon assay. The 1b_Huh-Luc/Neo-ET cell line persistently expressing a bicistronic genotype 1b replicon in Huh 7 cells was obtained from R^eBLikon GMBH. This cell line was used to test compound inhibition using luciferase enzyme activity readout as a measurement of compound inhibition of replicon levels.
On Day 1 (the day after plating), each compound is added in triplicate to the cells. Plates incubated for 72 h prior to running the luciferase assay. Enzyme activity was measured using a Bright-Glo Kit (cat. number E2620) manufactured by Promega Corporation. The following equation was used to generate a percent control value for each compound. % Control=(Average Compound Value/Average Control)*100
The EC50 value was determined using GraphPad Prism and the following equation: Y=Bottom+(Top−Bottom)/(1+10^((Log IC50−X)*HillSlope))
EC50 values of compounds are repeated several times in the replicon assay.
Example compounds of the disclosed invention are illustrated in Tables 1-9 attached as appendices. The tables show inhibitory activity of many of the example compounds with respect to HCV 1b. […] The tables further provide mass spectrometry results for the synthesized example compounds.

| SMILES | EC50 |
| --- | --- |
| CC(C)[C@H](NC(=O)N1CCOCC1)C(=O)N1CCC[C@H]1c1ncc(-c2ccc([C@H]3CC[C@H](c4cnc([C@@H]5CCCN5C(=O)[C@@H](NC(=O)N5CCOCC5)C(C)C)[nH]4)CC3)cc2)[nH]1 [compound 385] | 10 to 999 nM |
| CC(C)[C@H](NC(=O)N1CCOCC1)C(=O)N1CCC[C@H]1c1ncc(-c2ccc([C@H]3CC[C@@H](c4cnc([C@@H]5CCCN5C(=O)[C@@H](NC(=O)N5CCOCC5)C(C)C)[nH]4)CC3)cc2)[nH]1 [compound 386] | 10 to 999 nM |
| COC(=O)N[C@@H](C)C(=O)N1CCC[C@H]1c1ncc(-c2ccc([C@H]3CC[C@H](c4cnc([C@@H]5CCCN5C(=O)[C@H](C)NC(=O)OC)[nH]4)CC3)cc2)[nH]1 [compound 387] | < 1 nM |
| COC(=O)N[C@H](C(=O)N1CCC[C@H]1c1ncc(-c2ccc([C@H]3CC[C@H](c4cnc([C@@H]5CCCN5C(=O)[C@@H](NC(=O)OC)[C@@H](C)OC)[nH]4)CC3)cc2)[nH]1)[C@@H](C)OC [compound 388] | < 1 nM |

Same assay, conditions: Hepatitis C virus, Huh-7, 72 h, read-out: Inhibition of HCV genotype 1b, Table 2, 72 h incubation

| SMILES | EC50 |
| --- | --- |
| CC(C)(C)OC(=O)N[C@@H](C(=O)N1CCC[C@H]1c1ncc(-c2ccc(-c3ccc4nc([C@@H]5CCCN5C(=O)[C@H](NC(=O)OC(C)(C)C)c5ccccc5)[nH]c4c3)cc2)[nH]1)c1ccccc1 [compound 400] | < 1 nM |
| COC(=O)N[C@@H](C(=O)N1CCC[C@H]1c1ncc(-c2ccc(-c3ccc4nc([C@@H]5CCCN5C(=O)[C@H](NC(=O)OC)c5ccccc5)[nH]c4c3)cc2)[nH]1)c1ccccc1 [compound 401] | < 1 nM |
| COC(=O)N[C@H](C(=O)N1CCC[C@H]1c1ncc(-c2ccc(-c3ccc4nc([C@@H]5CCCN5C(=O)[C@@H](NC(=O)OC)[C@@H](C)OC)[nH]c4c3)cc2)[nH]1)[C@@H](C)OC [compound 402] | < 1 nM |
| COC(=O)N[C@H](C(=O)N1CCC[C@H]1c1ncc(-c2ccc(-c3ccc4nc([C@@H]5CCCN5C(=O)[C@@H](NC(=O)OC)C(C)C)[nH]c4c3)cc2)[nH]1)C(C)C [compound 403] | < 1 nM |
| COC(=O)N[C@@H](C(=O)N1CCC[C@H]1c1ncc(-c2ccc(-c3ccc4nc([C@@H]5CCCN5C(=O)[C@H](NC(=O)OC)C(C)C)[nH]c4c3)cc2)[nH]1)C(C)C [compound 404] | 1 to 9.9 nM |

Same assay, conditions: Hepatitis C virus, Huh-7, 72 h, read-out: Inhibition of HCV genotype 1b, Table 3, 72 h incubation

| SMILES | EC50 |
| --- | --- |
| CC(C)(C)OC(=O)N[C@@H](C(=O)N1CCC[C@H]1c1ncc(-c2ccc(N3CCC(c4cnc([C@@H]5CCCN5C(=O)[C@H](NC(=O)OC(C)(C)C)c5ccccc5)[nH]4)CC3)c(F)c2)[nH]1)c1ccccc1 [compound 450] | < 1 nM |
| O=C(N[C@@H](C(=O)N1CCC[C@H]1c1ncc(-c2ccc(N3CCC(c4cnc([C@@H]5CCCN5C(=O)[C@H](NC(=O)C5CC5)c5ccccc5)[nH]4)CC3)c(F)c2)[nH]1)c1ccccc1)C1CC1 [compound 451] | < 1 nM |
| COC(=O)N[C@@H](C(=O)N1CCC[C@H]1c1ncc(-c2ccc(N3CCC(c4cnc([C@@H]5CCCN5C(=O)[C@H](NC(=O)OC)c5ccccc5)[nH]4)CC3)c(F)c2)[nH]1)c1ccccc1 [compound 452] | < 1 nM |
| CC(C)(C)OC(=O)N[C@@H](C(=O)N1CCC[C@H]1C(=O)NC1CCN(c2ccc(-c3cnc([C@@H]4CCCN4C(=O)[C@H](NC(=O)OC(C)(C)C)c4ccccc4)[nH]3)cc2F)CC1)c1ccccc1 [compound 453] | < 1 nM |
| COC(=O)N[C@@H](C(=O)N1CCC[C@H]1C(=O)NC1CCN(c2ccc(-c3cnc([C@@H]4CCCN4C(=O)[C@H](NC(=O)OC)c4ccccc4)[nH]3)cc2F)CC1)c1ccccc1 [compound 454] | < 1 nM |
| O=C(NC1CCN(c2ccc(-c3cnc([C@@H]4CCCN4C(=O)[C@H](NC(=O)N4CCOCC4)c4ccccc4)[nH]3)cc2F)CC1)[C@@H]1CCCN1C(=O)[C@H](NC(=O)N1CCOCC1)c1ccccc1 [compound 455] | 1 to 9.9 nM |
| O=C(N[C@@H](C(=O)N1CCC[C@H]1C(=O)NC1CCN(c2ccc(-c3cnc([C@@H]4CCCN4C(=O)[C@H](NC(=O)C4CC4)c4ccccc4)[nH]3)cc2F)CC1)c1ccccc1)C1CC1 [compound 456] | < 1 nM |
| CN(C)C(=O)N[C@@H](C(=O)N1CCC[C@H]1C(=O)NC1CCN(c2ccc(-c3cnc([C@@H]4CCCN4C(=O)[C@H](NC(=O)N(C)C)c4ccccc4)[nH]3)cc2F)CC1)c1ccccc1 [compound 457] | < 1 nM |
| COC(=O)N[C@@H](C(=O)N1CCC[C@H]1c1ncc(-c2cc(F)c(N3CCC(c4cnc([C@@H]5CCCN5C(=O)[C@@H](c5ccccc5)N(C)C)[nH]4)CC3)c(F)c2)[nH]1)c1ccccc1 [compound 458] | < 1 nM |
| COC(=O)N[C@@H](C(=O)N1CCC[C@H]1c1ncc(-c2cc(F)c(N3CCC(c4cnc([C@@H]5CCCN5C(=O)[C@H](NC(=O)OC)c5ccccc5)[nH]4)CC3)c(F)c2)[nH]1)c1ccccc1 [compound 459] | < 1 nM |
| COC(=O)N[C@@H](C(=O)N1CCC[C@H]1c1ncc(-c2cc(F)c(N3CCC(c4cnc([C@@H]5CCCN5C(=O)[C@H](NC(=O)OC(C)(C)C)c5ccccc5)[nH]4)CC3)c(F)c2)[nH]1)c1ccccc1 [compound 460] | < 1 nM |
| COC(=O)N[C@@H](C(=O)N1CCC[C@H]1c1ncc(-c2cc(F)c(N3CCC(c4cnc([C@@H]5CCCN5C(=O)[C@H](NC(=O)C5CC5)c5ccccc5)[nH]4)CC3)c(F)c2)[nH]1)c1ccccc1 [compound 461] | < 1 nM |
| COC(=O)N[C@@H](C(=O)N1CCC[C@H]1c1ncc(-c2cc(F)c(N3CCC(c4cnc([C@@H]5CCCN5C(=O)[C@H](NC(=O)N5CCN(C)CC5)c5ccccc5)[nH]4)CC3)c(F)c2)[nH]1)c1ccccc1 [compound 462] | < 1 nM |
| COC(=O)N[C@H](C(=O)N1CCC[C@H]1c1ncc(C2CCN(c3c(F)cc(-c4cnc([C@@H]5CCCN5C(=O)[C@H](NC(=O)OC)c5ccccc5)[nH]4)cc3F)CC2)[nH]1)[C@@H](C)OC [compound 466] | < 1 nM |
| CCN(CC)[C@@H](C(=O)N1CCC[C@H]1c1ncc(C2CCN(c3c(F)cc(-c4cnc([C@@H]5CCCN5C(=O)[C@H](NC(=O)OC)c5ccccc5)[nH]4)cc3F)CC2)[nH]1)c1ccccc1 [compound 467] | < 1 nM |
| COC(=O)N[C@@H](C(=O)N1CCC[C@H]1c1ncc(-c2cc(F)c(N3CCC(c4cnc([C@@H]5CCCN5C(=O)[C@@H](c5ccccc5)N5CCOCC5)[nH]4)CC3)c(F)c2)[nH]1)c1ccccc1 [compound 468] | < 1 nM |
| COC(=O)N[C@@H](C(=O)N1CCC[C@H]1c1ncc(-c2cc(F)c(N3CCC(c4cnc([C@@H]5CCCN5C(=O)[C@@H](c5ccccc5)N5CCCCC5)[nH]4)CC3)c(F)c2)[nH]1)c1ccccc1 [compound 469] | < 1 nM |
| COC(=O)N[C@@H](C(=O)N1CCC[C@H]1c1ncc(-c2cc(F)c(N3CCC(c4cnc([C@@H]5CCCN5C(=O)[C@H](NC(=O)N5CCOCC5)c5ccccc5)[nH]4)CC3)c(F)c2)[nH]1)c1ccccc1 [compound 471] | 1 to 9.9 nM |
| COC(=O)N[C@@H](C(=O)N1CCC[C@H]1c1ncc(-c2cc(F)c(N3CCC(c4cnc([C@@H]5CCCN5C(=O)[C@H](NC(=O)[C@@H]5CCCN5C)c5ccccc5)[nH]4)CC3)c(F)c2)[nH]1)c1ccccc1 [compound 472] | < 1 nM |
| COC(=O)N[C@@H](C(=O)N1CCC[C@H]1c1ncc(-c2cc(F)c(N3CCC(c4cnc([C@@H]5CCCN5C(=O)[C@H](NS(C)(=O)=O)c5ccccc5)[nH]4)CC3)c(F)c2)[nH]1)c1ccccc1 [compound 474] | < 1 nM |
| COC(=O)N[C@@H](C(=O)N1CCC[C@H]1c1ncc(-c2cc(F)c(N3CCC(c4cnc([C@@H]5CCCN5C(=O)[C@@H](c5ccccc5)N5CCCC5)[nH]4)CC3)c(F)c2)[nH]1)c1ccccc1 [compound 475] | < 1 nM |
| CCOC(=O)N[C@@H](C(=O)N1CCC[C@H]1c1ncc(C2CCN(c3c(F)cc(-c4cnc([C@@H]5CCCN5C(=O)[C@H](NC(=O)OC)c5ccccc5)[nH]4)cc3F)CC2)[nH]1)c1ccccc1 [compound 476] | < 1 nM |
| COC(=O)N[C@@H](C(=O)N1CCC[C@H]1c1ncc(-c2cc(F)c(N3CCC(c4cnc([C@@H]5CCCN5C(=O)[C@H](NS(=O)(=O)C5CC5)c5ccccc5)[nH]4)CC3)c(F)c2)[nH]1)c1ccccc1 [compound 477] | < 1 nM |
| COC(=O)N[C@@H](C(=O)N1CCC[C@H]1c1ncc(C2CCN(c3c(F)cc(-c4cnc([C@@H]5CCCN5C(=O)[C@H](NC(=O)OC(C)(C)C)c5ccccc5)[nH]4)cc3F)CC2)[nH]1)c1ccccc1 [compound 479] | < 1 nM |
| COC(=O)N[C@@H](C(=O)N1CCC[C@H]1c1ncc(C2CCN(c3c(F)cc(-c4cnc([C@@H]5CCCN5C(=O)[C@H](NC(=O)C5CC5)c5ccccc5)[nH]4)cc3F)CC2)[nH]1)c1ccccc1 [compound 480] | < 1 nM |
| COC(=O)N[C@@H](C(=O)N1CCC[C@H]1c1ncc(C2CCN(c3c(F)cc(-c4cnc([C@@H]5CCCN5C(=O)[C@H](NC(=O)N5CCOCC5)c5ccccc5)[nH]4)cc3F)CC2)[nH]1)c1ccccc1 [compound 481] | < 1 nM |
| CC(C)(C)OC(=O)N[C@@H](C(=O)N1CCC[C@H]1c1ncc(-c2cc(F)c(N3CCC(c4cnc([C@@H]5CCCN5C(=O)[C@H](NC(=O)OC(C)(C)C)c5ccccc5)[nH]4)CC3)c(F)c2)[nH]1)c1ccccc1 [compound 482] | < 1 nM |

Same assay, conditions: read-out: Inhibition of HCV genotype 1b, Table 3, 72 h incubation

| SMILES | EC50 |
| --- | --- |
| COC(=O)N[C@@H](C(=O)N1CCC[C@H]1c1ncc(-c2cc(F)c(N3CCC(c4cnc([C@@H]5CCCN5C(=O)[C@H](NC(=O)N5CCOCC5)c5ccccc5)[nH]4)CC3)c(F)c2)[nH]1)c1ccccc1 [compound 473] | < 1 nM |
